Test results from patent US10036018B2, “Compositions and methods for treating cachexia” (priority 2014, dated 2018).

How the values were obtained:
[1] = system: C2C12 myoblasts; assay: Trypan blue cell death of C2C12 cells treated with cytokines; assay type: cell-based, murine; conditions: C2C12, 24 h, cytokines at 5 ng/mL
Description: FIG. 5C is a graph depicting cell death assessed by trypan blue dye staining performed on C2C12 cells that were treated for 24 h with individual cytokines or a mixture (Cocktail) of IL-1, IL-6, TNFα, and IFNγ (all at 5 ng/mL). As a negative control, cells were treated with serum-free medium.
Trypan Blue Staining. Trypan blue dye was purchased from Gibco (15250-061), and staining was performed following the manufacturer's protocol. Dead cells are blue in color under the microscope and were counted using a hemocytometer.

[2] = system: phospho-c-jun; assay: Western blot of treated C2C12 extracts, phospho-c-jun; assay type: cell-based, murine; conditions: proliferating myoblasts, Western blot time course
Description: (§1) FIG. 9B is an image of a Western blot on extracts of C2C12 cells that had been treated with either LLC-derived MVs (Upper) or synthetic miR-21 (Lower, using miR-16 as control), which were probed with antibodies against phospho-JNK, phospho-c-jun, and phospho-p38 at different times, as indicated.
(§2) Western Blot. Western blots were performed as previously described (2). Antibodies used and their dilutions are listed: p-JNK (Cell Signaling Technology, 1:2,000), p-c-Jun (Cell Signaling Technology, 1:1,000), p-p38 (Cell Signaling Technology, 1:2,000), and vinculin (Abeam, 1:3,000).

[3] = system: TLR7+/+ primary myoblasts; assay: Cell viability (cell counter) of TLR7+/+ primary myoblasts treated with Dotap formulations of miRNAs; assay type: cell-based, mice; conditions: Dotap formulation, 24 h
Description: (§3) FIG. 4A is a graph depicting cell viability assessed with a cell counter for TLR7+/+ and TLR7−/− primary myoblasts that were treated with Dotap formulations of miR-16 and miR-21 for 24 h. As negative control, cells were incubated with Dotap alone. Experiments were performed in quadruplicate. Results are presented as average±SEM. *P≤0.05; **P≤0.01; ***P≤0.001.
(§4) MV Treatment. C2C12 immortalized myoblasts or primary myoblasts isolated from mice were treated with MVs at indicated times. Cell numbers of myoblasts were counted on a hemocytometer.
(§5) Myoblast Isolation and Culture. Primary myoblasts were isolated as previously described (2) and preplated twice, using noncoated tissue culture dishes, and then cultured either on a matrigelcoated 96-well plate for MTS assay reading at indicated times or on a matrigel-coated 12-well plate for protein and RNA analysis.

[4] = system: phospho-p38; assay: Western blot of treated C2C12 extracts, phospho-p38; assay type: cell-based, murine; conditions: proliferating myoblasts, Western blot time course
Description: as §1, §2

[5] = system: TLR7−/− primary myoblasts; assay: Cell viability (cell counter) of TLR7-/- primary myoblasts treated with Dotap formulations of miRNAs; assay type: cell-based, mice; conditions: Dotap formulation, 24 h
Description: as §3, §4, §5
Mice. Cachexia in the LLC model were induced as previously described (2). TLR7−/− mice were obtained from Jackson Laboratory. Wild-type C57B6 male mice at the same age and weight were used as TLR7+/+ controls. All genotypes were determined by PCR, using tail DNA. All procedures used in this study complied with federal guidelines and the institutional policies of the Ohio State University Animal Care and Use Committee.

[6] = system: phospho-JNK; assay: Western blot of treated C2C12 extracts, phospho-JNK; assay type: cell-based, murine; conditions: proliferating myoblasts, Western blot time course
Description: as §1, §2

IFN-γ: proinflammatory cytokine
effect on the viability of proliferating murine C2C12 myoblasts [1]: little or no effect

IL-1β: proinflammatory cytokine
effect on the viability of proliferating murine C2C12 myoblasts [1]: little or no effect

IL-6: proinflammatory cytokine
effect on the viability of proliferating murine C2C12 myoblasts [1]: little or no effect

TNFα
effect on the viability of proliferating murine C2C12 myoblasts [1]: little or no effect

UAGCUUAUCAGACUGAUGUUGA [miR-21]
c-JUN activation [2]: transiently induced | cell death on exogenous addition of miRNA [3]: induced pronounced cell death | p38 activity [4]: no significant change | cell death on exogenous addition of miRNA [5]: significantly blunted | cell death on exogenous addition of miRNA ([5]; listed as miR21): does not completely rescue | JNK activation [6]: transiently induced
